Laboratory results reported in patent publication US20050004163A1, “3-(diarylmethylene)-8-azabicyclo[3.2.1]octane derivatives” (priority 2000, published 2005).
Counter-ions that a name gives are not always drawn.

Target: T1, μ-opioid receptor (Rattus norvegicus, UniProt P33535)
T1 construct: the forebrains are homogenized in Tris buffer in a Teflon®-glass homogenizer; from tissue; host or cells: forebrain of male Wistar rats (particulate membrane preparation)
Experiment: Rat brain μ-opioid receptor binding assay ([3H]DAMGO)
Settings: 10 nM solutions of the compounds, read-out: MOR binding Ki
Method: Rat Brain μ-Opioid Receptor Binding Assay
Male, Wistar rats (150-250 g, VAF, Charles River, Kingston, N.Y.) are killed by cervical dislocation and their brains removed and placed immediately in ice cold Tris HCl buffer (50 mM, pH 7.4). The forebrains are separated from the remainder of the brain by a coronal transection, beginning dorsally at the colliculi and passing ventrally through the midbrain-pontine junction. After dissection, the forebrains are homogenized in Tris buffer in a Teflon®-glass homogenizer. The homogenate is diluted to a concentration of 1 g of forebrain tissue per 100 mL Tris buffer and centrifuged at 39,000×G for 10 min. The pellet is resuspended in the same volume of Tris buffer with several brief pulses from a Polytron homogenizer. This particulate preparation is used for the μ-opioid binding assays. […] The tubes and filters are rinsed three times with 4 mL of 10 mM HEPES (pH 7.4) and the radioactivity associated with the filter circles determined using Formula 989 scintillation fluid (New England Nuclear, Boston, Mass.) in a scintillation counter.
The data are used to calculate either the % inhibition compared to control binding (when only a single concentration of test compound is evaluated) or a Ki value (when a range of concentrations is tested).
% Inhibition is calculated as follows: [formula]
Ki value is calculated using the LIGAND (Munson, P. J. and Rodbard, D., Anal. Biochem. 107: 220-239, 1980) data analysis program.

T1 sequence (P33535 whole entry): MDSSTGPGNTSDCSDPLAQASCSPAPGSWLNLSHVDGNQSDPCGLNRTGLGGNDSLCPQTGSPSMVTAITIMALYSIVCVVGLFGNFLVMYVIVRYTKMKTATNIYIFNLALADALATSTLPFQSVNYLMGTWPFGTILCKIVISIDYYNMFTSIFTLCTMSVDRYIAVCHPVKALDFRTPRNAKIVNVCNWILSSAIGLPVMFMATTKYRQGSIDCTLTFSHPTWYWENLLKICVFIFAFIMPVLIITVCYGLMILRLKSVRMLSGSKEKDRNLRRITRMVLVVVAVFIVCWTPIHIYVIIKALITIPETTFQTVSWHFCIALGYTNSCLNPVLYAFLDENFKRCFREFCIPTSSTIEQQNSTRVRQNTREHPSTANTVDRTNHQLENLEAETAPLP

SMILES	Ki
CCNC(=O)c1ccc(C(=C2CC3CCC(C2)N3Cc2ccc3ccccc3n2)c2ccccn2)cc1 [Cpd 13]	123 nM
CCCCN1C2CCC1CC(=Cc1ccc(C(=O)NCC)cc1)C2 [Cpd 53]	262 nM
CCNC(=O)c1ccc(C(Br)=C2CC3CCC(C2)N3Cc2c[nH]cn2)cc1 [Cpd 39]	83.7 nM
CCNC(=O)c1ccc(C(=C2CC3CCC(C2)N3CC=C(C)C)c2nnn[nH]2)cc1 [Cpd 147]	109 nM
CCNC(=O)c1ccc(C=C2CC3CCC(C2)N3Cc2sc3ccccc3c2C)cc1 [Cpd 78]	271 nM
CCNC(=O)c1ccc(C(Br)=C2CC3CCC(C2)N3Cc2ccco2)cc1 [Cpd 24]	21.7 nM
CCNC(=O)c1ccc(C=C2CC3CCC(C2)N3Cc2ccncc2)cc1 [Cpd 58]	1180 nM
CCNC(=O)c1ccc(C(=C2CC3CCC(C2)N3Cc2ccco2)c2ccc([N+](=O)[O-])cc2)cc1 [Cpd 123]	34.2 nM
CCNC(=O)c1ccc(C(=C2CC3CCC(C2)N3Cc2ccco2)c2ccc(C(=O)O)cc2)cc1 [Cpd 96]	63.5 nM
CCNC(=O)c1ccc(C(Br)=C2CC3CCC(C2)N3Cc2ccc(NC(C)=O)cc2)cc1 [Cpd 21]	48.2 nM

Same assay, conditions: MOR binding Ki

SMILES	Ki
CCNC(=O)c1ccc(C(=C2CC3CCC(C2)N3Cc2cccs2)c2cccc(-c3nnn[nH]3)c2)cc1 [Cpd 168]	395 nM
CCNC(=O)c1ccc(C=C2CC3CCC(C2)N3Cc2c[nH]cn2)cc1 [Cpd 46]	5480 nM
CCNC(=O)c1ccc(C(=C2CC3CCC(C2)N3Cc2ccco2)c2ccc(CO)cc2)cc1 [Cpd 192]	18.6 nM
CCNC(=O)c1ccc(C=C2CC3CCC(C2)N3CC=C(C)C)cc1 [Cpd 55]	195 nM
CCNC(=O)c1ccc(C(=C2CC3CCC(C2)N3Cc2ccc3ccccc3n2)c2ccc(C(=O)O)cc2)cc1 [Cpd 100]	147 nM
CCNC(=O)c1ccc(C(=C2CC3CCC(C2)N3Cc2ccccn2)c2ccc(CO)cc2)cc1 [Cpd 193]	25.3 nM
CCNC(=O)c1ccc(C(=C2CC3CCC(C2)N3Cc2ccsc2)c2cccc(CN)c2)cc1 [Cpd 162]	849 nM
CCNC(=O)c1ccc(C(Br)=C2CC3CCC(C2)N3Cc2ccoc2)cc1 (single isomer, unassigned) [Cpd 211]	0.23 nM
CCNC(=O)c1ccc(C(=C2CC3CCC(C2)N3Cc2ccsc2)c2nnn[nH]2)cc1 [Cpd 148]	329 nM
CCNC(=O)c1ccc(C(=C2CC3CCC(C2)N3Cc2cccs2)c2ccc(S(N)(=O)=O)cc2)cc1 [Cpd 141]	1.05 nM
CCNC(=O)c1ccc(C(=C2CC3CCC(C2)N3)c2nnn[nH]2)cc1 [Cpd 151]	1.76 nM
CCNC(=O)c1ccc(C(=C2CC3CCC(C2)N3CC=C(C)C)c2cc(C(=O)O)cc([N+](=O)[O-])c2)cc1 [Cpd 155]	74.3 nM
CCNC(=O)c1ccc(C=C2CC3CCC(C2)N3Cc2ccc3c(c2)OCO3)cc1 [Cpd 54]	130 nM
CCNC(=O)c1ccc(C(=C2C[C@H]3CC[C@@H](C2)N3Cc2ccsc2)c2ccc(CO)cc2)cc1 (single isomer, unassigned) [Cpd 196, N-Ethyl-4-[(4-hydroxymethyl-phenyl)-(8-thiophen-3-ylmethyl-8-aza-bicyclo[3.2.1]oct-3-ylidene)-methyl]-benzamide]	4.1 nM
CCNC(=O)c1ccc(C(=C2CC3CCC(C2)N3Cc2ccc(NC(C)=O)cc2)c2ccc3c(c2)OCO3)cc1 [Cpd 5]	73 nM
CCNC(=O)c1ccc(C(Br)=C2CC3CCC(C2)N3Cc2[nH]cnc2C)cc1 [Cpd 27]	99.8 nM
CCN(CC)C(=O)c1ccc(C(=C2CC3CCC(C2)N3C(=N)N)c2ccccc2)cc1 [Cpd 198, 4-[(8-Carbamimidoyl-8-aza-bicyclo[3.2.1]oct-3-ylidene)-phenyl-methyl]-N,N-diethyl-benzamide]	10000 nM
CCNC(=O)c1ccc(C=C2CC3CCC(C2)N3CC(N)Cc2ccccc2)cc1 (centres unmarked) [Cpd 1, 4-[8-(2-Amino-3-phenyl-propyl)-8-aza-bicyclo[3.2.1]oct-3-ylidenemethyl]-N-ethyl-benzamide Hydrochloride]	340 nM
CCNC(=O)c1ccc(C(=C2CC3CCC(C2)N3Cc2ccccn2)c2ccc(C(=O)O)cc2)cc1 [Cpd 98]	203 nM
CCN(CC)C(=O)c1ccc(C(=C2CC3CCC(C2)N3C=O)c2ccccc2)cc1 [Cpd 199]	5340 nM

SMILES	Ki
CCNC(=O)c1ccc(C(=C2CC3CCC(C2)N3CCc2ccccc2)c2cc(C(=O)O)cc([N+](=O)[O-])c2)cc1 [Cpd 157]	8.57 nM
CCNC(=O)c1ccc(C(=C2CC3CCC(C2)N3Cc2nccs2)c2ccc(S(N)(=O)=O)cc2)cc1 [Cpd 140]	217 nM
CCNC(=O)c1ccc(C(=C2CC3CCC(C2)N3Cc2ccco2)c2cccc(C(=O)O)c2)cc1 [Cpd 80, 3-[(4-Ethylcarbamoyl-phenyl)-(8-furan-2-ylmethyl-8-aza-bicyclo[3.2.1]oct-3-ylidene)-methyl]-benzoic acid]	119 nM
CCN(CC)C(=O)c1ccc(C(Br)=C2CC3CCC(C2)N3CCc2ccccc2)cc1 [Cpd 89, 4-[Bromo-(8-phenethyl-8-azabicyclo[3.2.1]oct-3-ylidene)-methyl]-N,N-diethylbenzamide]	1010 nM
CCNC(=O)c1ccc(C(=C2CC3CCC(C2)N3CCc2ccccc2)c2nnn[nH]2)cc1 [Cpd 149]	63.7 nM
CCNC(=O)c1ccc(C(=C2CC3CCC(C2)N3Cc2nccs2)c2ccc(NS(C)(=O)=O)cc2)cc1 [Cpd 187]	121 nM
CCNC(=O)c1ccc(C(=C2C[C@H]3CC[C@@H](C2)N3C(=O)Cc2ccccc2)c2cccnc2)cc1 [Cpd 218, N-Ethyl-4-[((1S,5R)-8-phenylacetyl-8-aza-bicyclo[3.2.1]oct-3-ylidene)-pyridin-3-yl-methyl]-benzamide]	3.54 nM
CCNC(=O)c1ccc(C(=C2CC3CCC(C2)N3Cc2ccsc2)c2ccc(C(N)=O)cc2)cc1 [Cpd 191]	22.1 nM
CCNC(=O)c1ccc(C=C2CC3CCC(C2)N3Cc2[nH]cnc2C)cc1 [Cpd 37]	1470 nM
CCNC(=O)c1ccc(C=C2CC3CCC(C2)N3Cc2ccc(NC(C)=O)cc2)cc1 [Cpd 31]	25.6 nM
CCNC(=O)c1ccc(C(=C2CC3CCC(C2)N3CC=C(C)C)c2ccc(CCC(=O)O)cc2)cc1 [Cpd 137]	9.74 nM
CCNC(=O)c1ccc(C(=C2CC3CCC(C2)N3CCc2ccccc2)c2ccc(C(=O)O)cc2)cc1 [Cpd 99]	5290 nM
CCNC(=O)c1ccc(C=C2CC3CCC(C2)N3Cc2ccccn2)cc1 [Cpd 56]	1500 nM
CCNC(=O)c1ccc(C(=C2CC3CCC(C2)N3Cc2ccco2)c2cc(N)cc(C(=O)O)c2)cc1 [Cpd 108]	10000 nM
CCNC(=O)c1ccc(C(=C2CC3CCC(C2)N3CCN2CCN(C(=O)OC)CC2)c2ccccc2)cc1 [Cpd 91, 4-(2-{3-[(4-Ethylcarbamoylphenyl)-phenylmethylene]-8-azabicyclo[3.2.1]oct-8-yl}-ethyl)piperazine-1-carboxylic acid methyl ester]	175 nM
CCNC(=O)c1ccc(C(=C2CC3CCC(C2)N3Cc2ccsc2)c2cccc(C(=O)O)c2)cc1 [Cpd 175]	34.4 nM
CCNC(=O)c1ccc(C(=C2CC3CCC(C2)N3Cc2ccsc2)c2ccc(S(N)(=O)=O)cc2)cc1 [Cpd 139]	1.54 nM
CCNC(=O)c1ccc(C(=C2CC3CCC(C2)N3Cc2ccc3ccccc3n2)c2ccc3c(c2)OCO3)cc1 [Cpd 9]	34.1 nM
CCNC(=O)c1ccc(C(=C2CC3CCC(C2)N3Cc2ccoc2)c2cccc(CO)c2)cc1 [Cpd 178]	0.81 nM
CCN(CC)C(=O)c1ccc(C=C2CC3CCC(C2)N3)cc1 [Cpd 48, 4-(8-Aza-bicyclo[3.2.1]oct-3-ylidenemethyl)-N,N-diethylbenzamide]	25800 nM
